Measurements as given in ChEMBL document CHEMBL5678796, “A highly potent and selective farnesyltransferase inhibitor ABT-100 in preclinical studies” (Anticancer Drugs, 2005).

Columns and labels:
[1] = Inhibition of FTase (unknown origin); parameters: species or system Homo sapiens
[2] = Inhibition of FTase in H-Ras transformed mouse NIH3T3 cells using Ras as substrate assessed as inhibition of substrate prenylation in presence of 10% bovine serum by immunoblot analysis; assay type: cell-based
[3] = test system: HCT-116; assay: Antitumor activity against human HCT-116 cells xenografted in nu/nu CD1 mouse assessed as reduction in tumor volume by measuring test to control ratio at 30 mg/kg, ip preinoculated with cells for 5 days followed by once every 3 days compound administration for 4 times and measured on day 22; assay type: functional; conditions: time 22 day
[4] = test system: HCT-116; assay: Antitumor activity against human HCT-116 cells xenografted in nu/nu CD1 mouse assessed as increase in life span at 30 mg/kg, ip preinoculated with cells for 5 days followed by once every 3 days compound administration for 4 times and measured on day 22 relative to vehicle in time to 1 cm3 tumor; assay type: functional; conditions: HCT-116, 528 h, time 22 day
[5] = test system: HCT-116; assay: Antitumor activity against human HCT-116 cells xenografted in nu/nu CD1 mouse assessed as tumor volume at 30 mg/kg, ip preinoculated with cells for 5 days followed by once every 3 days compound administration for 4 times and measured on day 22 (reference value: 1861 +/- 410 mm^3); assay type: functional; conditions: time 22 day
[6] = test system: HCT-116; assay: Antitumor activity against human HCT-116 cells xenografted in nu/nu CD1 mouse assessed as increase in life span at 50 mg/kg, ip preinoculated with cells for 14 days followed by once every 4 days compound administration for 4 times and measured on day 40 relative to vehicle in time to 1 cm^3 tumor; assay type: functional; conditions: HCT-116, 960 h, time 40 day
[7] = test system: NIH3T3; assay: Inhibition of anchorage-independent growth in H-Ras transformed mouse NIH3T3 cells assessed as inhibition of colony formation incubated for 14 days in presence of 10% bovine serum by imaging based soft agar colony formation assay; assay type: functional, cell-based; conditions: NIH3T3, 336 h
[8] = test system: HCT-116; assay: Inhibition of anchorage-independent growth in human HCT-116 cells assessed as inhibition of colony formation incubated for 14 days in presence of 10% FBS by imaging based soft agar colony formation assay; assay type: functional, cell-based; conditions: HCT-116, 336 h
[9] = Inhibition of recombinant human FTase incubated for 30 mins in presence of [3H]FPP by SPA based Topcount scintillation plate reader analysis
[10] = Inhibition of FTase in human DLD-1 cells expressing moderate level of P-gp1 using Ras as substrate assessed as inhibition of substrate post-translation processing in presence of 10% FBS by immunoblot analysis; assay type: cell-based
[11] = Inhibition of FTase in human HCT-116 cells expressing low level of P-gp1 using Ras as substrate assessed as inhibition of substrate post-translation processing in presence of 10% FBS by immunoblot analysis; assay type: cell-based
[12] = Ratio of EC50 for inhibition of FTase in human HCT-15 cells expressing high level of P-gp1 using Ras as substrate assessed as inhibition of substrate post-translation processing in presence of 20% human serum to EC50 for inhibition of FTase in human HCT-15 cells expressing high level of P-gp1 using Ras as substrate assessed as inhibition of substrate post-translation processing in presence of 10% …; conditions: condition cancer
[13] = Inhibition of GGTase in H-Ras transformed mouse NIH3T3 cells using Rap 1A as substrate assessed as inhibition of substrate prenylation in presence of 10% bovine serum by immunoblot analysis; assay type: cell-based
[14] = Inhibition of recombinant bovine FTase incubated for 30 mins in presence of [3H]FPP by SPA based Topcount scintillation plate reader analysis; parameters: species or system Bos taurus
[15] = Ratio of EC50 for inhibition of FTase in human HCT-116 cells expressing low level of P-gp1 using Ras as substrate assessed as inhibition of substrate post-translation processing in presence of 20% human serum to EC50 for inhibition of FTase in human HCT-116 cells expressing low level of P-gp1 using Ras as substrate assessed as inhibition of substrate post-translation processing in presence of 10% …; conditions: condition cancer
[16] = Inhibition of FTase in human HCT-116 cells expressing low level of P-gp1 using Ras as substrate assessed as inhibition of substrate post-translation processing in presence of 20% human serum by immunoblot analysis; assay type: cell-based
[17] = Inhibition of FTase in human HCT-15 cells expressing high level of P-gp1 using Ras as substrate assessed as inhibition of substrate post-translation processing in presence of 10% FBS by immunoblot analysis; assay type: cell-based
[18] = Ratio of EC50 for inhibition of FTase in human DLD-1 cells expressing moderate level of P-gp1 using Ras as substrate assessed as inhibition of substrate post-translation processing in presence of 20% human serum to EC50 for inhibition of FTase in human DLD-1 cells expressing moderate level of P-gp1 using Ras as substrate assessed as inhibition of substrate post-translation processing in presence …; conditions: condition cancer
[19] = test system: NIH3T3; assay: Inhibition of anchorage-independent growth in H-Ras transformed mouse NIH3T3 cells assessed as inhibition of colony formation in presence of 10% bovine serum; assay type: functional, cell-based
[20] = Inhibition of FTase in human DLD-1 cells expressing moderate level of P-gp1 using Ras as substrate assessed as inhibition of substrate post-translation processing in presence of 10% human serum by immunoblot analysis; assay type: cell-based
[21] = test system: HCT-116; assay: Inhibition of anchorage-independent growth in human HCT-116 cells assessed as inhibition of colony formation in presence of 10% FBS; assay type: functional, cell-based
[22] = Inhibition of FTase in human HCT-15 cells expressing high level of P-gp1 using Ras as substrate assessed as inhibition of substrate post-translation processing in presence of 20% human serum by immunoblot analysis; assay type: cell-based
[23] = Inhibition of recombinant bovine GGTase I incubated for 30 min sin presence of [3H]FPP by SPA based Topcount scintillation plate reader analysis; parameters: species or system Bos taurus
[24] = test system: HCT-116; assay: Antitumor activity against human HCT-116 cells xenografted in nu/nu CD1 mouse assessed as reduction in tumor volume by measuring test to control ratio at 100 mg/kg, sc preinoculated with cells for 5 days followed by twice daily compound administration for 21 days and measured on day 22; assay type: functional; conditions: time 22 day
[25] = test system: HCT-116; assay: Antitumor activity against human HCT-116 cells xenografted in nu/nu CD1 mouse assessed as increase in life span at 100 mg/kg, sc preinoculated with cells for 5 days followed by twice daily compound administration for 21 days and measured on day 22 relative to vehicle in time to 1 cm3 tumor; assay type: functional; conditions: HCT-116, 528 h, time 22 day
[26] = test system: HCT-116; assay: Antitumor activity against human HCT-116 cells xenografted in nu/nu CD1 mouse assessed as tumor volume at 100 mg/kg, sc preinoculated with cells for 5 days followed by twice daily compound administration for 21 days and measured on day 22 (reference value: 1436 +/- 263 mm^3); assay type: functional; conditions: time 22 day

## Cn1cncc1C(O)(COc1ccc(C#N)cc1-c1ccc(OC(F)(F)F)cc1)c1ccc(C#N)cc1 (stereo not drawn)
[1]
  EC50: 0.6 nM
[2]
  EC50: 2 nM

## Nc1ccn([C@@H]2O[C@H](CO)[C@@H](O)C2(F)F)c(=O)n1 [GEMCITABINE]
[3]
  T/C: 22%
[4]
  ILS at 30 mg/kg: 112%
[5]
  Activity: 359 mm3

## CCc1c2c(nc3ccc(OC(=O)N4CCC(N5CCCCC5)CC4)cc13)-c1cc3c(c(=O)n1C2)COC(=O)[C@]3(O)CC [IRINOTECAN]
[6]
  ILS at 50 mg/kg: 200%

## NC(=O)N1CCC(CC(=O)N2CCC([C@H]3c4ncc(Br)cc4CCc4cc(Cl)cc(Br)c43)CC2)CC1 [LONAFARNIB]
[7]
  EC50: 56 nM
[8]
  EC50: 94 nM
[9]
  IC50: 4.9 nM
[10]
  EC50: 12 nM
[11]
  EC50: 16 nM
[12]
  Ratio EC50: 1.9
[13]
  EC50: > 30000 nM
[2]
  EC50: 160 nM
[14]
  IC50: 7.8 nM
[15]
  Ratio EC50: 1.9
[16]
  EC50: 49 nM
[17]
  EC50: 37 nM
[18]
  Ratio EC50: 1.9
[19]
  EC50: 50 nM
[20]
  EC50: 23 nM
[21]
  EC50: 74 nM
[22]
  EC50: 210 nM
[23]
  IC50: > 10000 nM

## Cn1cncc1[C@@](N)(c1ccc(Cl)cc1)c1ccc2c(c1)c(-c1cccc(Cl)c1)cc(=O)n2C [TIPIFARNIB]
[24]
  T/C: 56%
[7]
  EC50: 3.7 nM
[8]
  EC50: 24 nM
[9]
  IC50: 0.45 nM
[10]
  EC50: 0.69 nM
[11]
  EC50: 0.98 nM
[12]
  Ratio EC50: 4.4
[13]
  EC50: > 30000 nM
[2]
  EC50: 2.3 nM
[14]
  IC50: 57 nM
[15]
  Ratio EC50: 4.4
[16]
  EC50: 6.7 nM
[17]
  EC50: 0.55 nM
[25]
  ILS at 100 mg/kg: 39%
[18]
  Ratio EC50: 4.4
[20]
  EC50: 3.1 nM
[22]
  EC50: 4.9 nM
[26]
  Activity: 820 mm3
[23]
  IC50: 1040 nM
